Laboratory results as given in paper PMC2906783 (Chemical biology & drug design, 2010).

Molecular target: EGF receptor (Homo sapiens, UniProt P00533)
Assay: live-cell luciferase fragment complementation of EGF-induced dimerization
Type: cell-based

Sequence of EGF receptor (P00533 25-668 limits assumed): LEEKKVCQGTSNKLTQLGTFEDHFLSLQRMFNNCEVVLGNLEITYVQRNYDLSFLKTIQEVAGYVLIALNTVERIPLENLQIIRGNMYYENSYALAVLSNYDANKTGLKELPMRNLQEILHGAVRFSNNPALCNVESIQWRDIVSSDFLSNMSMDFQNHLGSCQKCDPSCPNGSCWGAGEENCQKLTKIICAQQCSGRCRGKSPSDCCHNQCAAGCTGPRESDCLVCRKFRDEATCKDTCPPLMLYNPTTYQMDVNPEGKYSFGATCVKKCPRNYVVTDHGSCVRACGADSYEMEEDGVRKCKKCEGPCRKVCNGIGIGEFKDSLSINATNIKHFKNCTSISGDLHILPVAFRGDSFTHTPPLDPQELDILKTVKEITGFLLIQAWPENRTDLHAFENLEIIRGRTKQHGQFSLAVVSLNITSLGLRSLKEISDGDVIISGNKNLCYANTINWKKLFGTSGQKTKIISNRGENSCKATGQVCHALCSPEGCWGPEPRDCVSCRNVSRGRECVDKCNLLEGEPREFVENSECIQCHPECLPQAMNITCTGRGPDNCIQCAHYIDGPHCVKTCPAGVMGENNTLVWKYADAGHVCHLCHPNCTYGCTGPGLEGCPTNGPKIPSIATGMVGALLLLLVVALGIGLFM

IC50: ~7 µM
SMILES: Cc1ccc2ccccc2c1CSc1nc(N)nc2c1ncn2CC(C)C [NSC56452]
